Measured values from paper PMC7939473, “Unique active-site and subsite features in the arabinogalactan-degrading GH43 exo-β-1,3-galactanase from Phanerochaete chrysosporium” (The Journal of Biological Chemistry, 2021).

Biological target: T1, Pc1,3Gal43A (Phanerodontia chrysosporium, UniProt Q50KB2, E208A)
T1 construct: signal peptide removed; Gln21-Tyr448 (428 residues) plus two extra N-terminal residues Glu19-Phe20 from restriction site; GH43_sub24 catalytic domain (21-325) + CBM35 (326-448); expressed in Pichia pastoris, N-glycosylated at Asn79, Asn194, Asn389; monomer in solution
Assay: X-ray crystallography (co-crystal, […] Å)
Conditions: ligand-binding site of the CBM35 domain (not in catalytic site); 10 mM Gal3; pH 4.5

T1 sequence (Q50KB2 entry or part of it E208A): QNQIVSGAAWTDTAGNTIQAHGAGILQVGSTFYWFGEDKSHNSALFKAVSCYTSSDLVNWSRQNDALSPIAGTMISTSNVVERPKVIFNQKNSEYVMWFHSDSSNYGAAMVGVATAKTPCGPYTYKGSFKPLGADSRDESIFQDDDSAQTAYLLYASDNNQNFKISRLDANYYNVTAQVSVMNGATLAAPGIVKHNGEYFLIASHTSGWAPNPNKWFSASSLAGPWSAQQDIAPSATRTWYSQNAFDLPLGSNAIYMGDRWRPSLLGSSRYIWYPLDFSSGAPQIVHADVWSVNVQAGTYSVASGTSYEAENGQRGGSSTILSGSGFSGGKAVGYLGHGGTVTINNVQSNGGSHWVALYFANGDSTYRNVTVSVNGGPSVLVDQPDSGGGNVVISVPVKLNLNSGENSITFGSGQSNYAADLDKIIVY

## OC[C@H]1O[C@@H](O[C@H]2[C@@H](O)[C@@H](CO)O[C@@H](O[C@H]3[C@@H](O)[C@@H](CO)OC(O)[C@@H]3O)[C@@H]2O)[C@H](O)[C@@H](O)[C@H]1O (stereo partly drawn) [Gal3, β-1,3-galactotriose]
  X-ray crystallography (co-crystal, 2.3 Å): In E208A_Gal3, electron density of Gal3 was observed in the ligand-binding site of PcCBM35
